Source: US20100267743A1, “3-(PHENOXYPYRROLIDIN-3-YL-METHYL)HETEROARYL, 3-(PHENYLPYRROLIDIN-3-YLMETHOXY)HETEROARYL, AND 3-(HETEROARYLPYRROLIDIN-3-YLMETHOXY)HETEROARYL COMPOUNDS” (priority 2009, published 2010)

Tests used:
SERT [1] = target: T1, SERT (Homo sapiens, UniProt P31645); conditions: cited from earlier work
Target sequence in this assay (P31645 whole entry, species assumed): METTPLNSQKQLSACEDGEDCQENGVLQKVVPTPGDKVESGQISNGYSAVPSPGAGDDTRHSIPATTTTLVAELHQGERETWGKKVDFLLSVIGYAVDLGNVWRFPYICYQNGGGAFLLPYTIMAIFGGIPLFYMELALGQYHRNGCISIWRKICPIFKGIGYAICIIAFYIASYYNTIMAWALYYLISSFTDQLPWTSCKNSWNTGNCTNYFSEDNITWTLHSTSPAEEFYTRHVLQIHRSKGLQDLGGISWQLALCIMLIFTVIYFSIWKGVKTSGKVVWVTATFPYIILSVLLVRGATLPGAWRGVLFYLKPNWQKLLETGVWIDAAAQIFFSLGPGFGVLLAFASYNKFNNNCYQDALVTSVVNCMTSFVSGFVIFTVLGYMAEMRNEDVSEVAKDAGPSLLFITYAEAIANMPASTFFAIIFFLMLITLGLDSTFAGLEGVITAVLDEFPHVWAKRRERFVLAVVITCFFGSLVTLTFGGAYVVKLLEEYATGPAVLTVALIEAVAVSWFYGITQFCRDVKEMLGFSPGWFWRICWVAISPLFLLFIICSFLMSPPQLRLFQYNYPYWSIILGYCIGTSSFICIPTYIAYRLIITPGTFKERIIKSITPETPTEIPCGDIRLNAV

NET [2] = target: T2, NET (Homo sapiens, UniProt P23975); conditions: cited from earlier work
NET [3] = target: T2, NET; assay: hNET radioligand binding assay (3H-nisoxetine); parameters: expressed in transfected cells; host or cells: HEK-293; conditions: hNET membranes (HEK-293), 1.0 nM 3H-nisoxetine; for Ki: read-out: NET pKi (converted)
Method in brief: (§1)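 Membranes came from HEK-293 cells stably expressing hSERT (0.5 μg protein) or hNET (1 μg), with 3H-citalopram or 3H-nisoxetine respectively. Incubation was 60 min at 22° C in Tris buffer with 120 mM NaCl and 5 mM KCl, pH 7.4, followed by filtration and scintillation counting. pKi was derived by Cheng-Prusoff from IC50 and saturation-derived Kd.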

SERT [4] = target: T1, SERT; assay: hSERT radioligand binding assay (3H-citalopram); parameters: expressed in transfected cells; host or cells: HEK-293; conditions: hSERT membranes (HEK-293), 1.0 nM 3H-citalopram; for Ki: read-out: SERT pKi (converted)
Method in brief: as §1
Target sequence in this assay (P31645 whole entry): as the sequence (P31645 whole entry, species assumed) above

T2 sequence (P23975 whole entry): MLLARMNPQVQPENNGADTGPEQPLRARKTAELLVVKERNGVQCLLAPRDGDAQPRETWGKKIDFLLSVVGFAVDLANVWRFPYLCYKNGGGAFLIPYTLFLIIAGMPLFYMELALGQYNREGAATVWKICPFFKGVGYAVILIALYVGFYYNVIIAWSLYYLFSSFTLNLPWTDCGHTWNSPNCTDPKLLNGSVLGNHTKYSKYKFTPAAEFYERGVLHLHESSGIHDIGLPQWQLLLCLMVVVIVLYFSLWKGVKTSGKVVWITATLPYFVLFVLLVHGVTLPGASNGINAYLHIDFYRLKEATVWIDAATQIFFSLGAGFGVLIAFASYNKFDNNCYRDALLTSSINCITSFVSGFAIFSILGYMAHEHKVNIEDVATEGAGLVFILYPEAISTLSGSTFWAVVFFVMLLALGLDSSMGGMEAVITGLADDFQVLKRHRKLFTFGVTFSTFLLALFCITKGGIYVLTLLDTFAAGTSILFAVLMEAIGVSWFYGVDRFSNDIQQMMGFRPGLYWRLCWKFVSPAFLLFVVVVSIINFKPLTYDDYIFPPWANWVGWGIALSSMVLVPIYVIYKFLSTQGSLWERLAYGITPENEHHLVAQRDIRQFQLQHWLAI

SMILES: CCN(CC)C(=O)C1(c2ccccc2)CC1CN (stereo not shown) [milnacipran]
- selectivity (measured as pKi) for SERT over NET (SERT [1]): 2.5 fold

SMILES: Cc1ccc(C23CNCC2C3)cc1 (stereo not shown) [bicifadine]
- pKi at NET (NET [2]): 6.7
- pKi at SERT (SERT [1]): 7.0

SMILES: Fc1cncc([C@H](Oc2cccc3ccccc23)[C@H]2CCNC2)c1.O=C(O)C(F)(F)F [19-2]
- NET pKi (NET [3]): ≧7.0
- SERT pKi (SERT [4]): ≧7.0

SMILES: Fc1cncc([C@@H](Oc2cc(Cl)cc(Cl)c2)[C@H]2CCNC2)c1 [Example 2-66, 3-[(S)-(3,5-Dichlorophenoxy)-(S)-pyrrolidin-3-yl-methyl]-5-fluoropyridine]
- Ki (NET [3]): ≤ 100 nM
- Ki (SERT [4]): ≤ 100 nM

SMILES: COc1ccccc1OC(c1cncnc1)C1CCNC1 (stereo not shown) [12-4]
- NET pKi (NET [3]): ≧7.0
- SERT pKi (SERT [4]): ≧5.0

SMILES: COc1cc(F)c(O[C@@H](c2nccs2)[C@H]2CCNC2)c(F)c1 [Example 5-28]
- NET pKi (NET [3]): ≧5.0
- SERT pKi (SERT [4]): ≧7.0

SMILES: Fc1cc(F)c(Cl)c(O[C@H](c2cncc(Cl)c2)[C@H]2CCNC2)c1Cl [Example 2-4, 3-Chloro-5-[(S)-(2,6-dichloro-3,5-difluorophenoxy)-(S)-pyrrolidin-3-yl-methyl]-pyridine]
- Ki (NET [3]): ≤ 10000 nM
- Ki (SERT [4]): ≤ 100 nM
